Laboratory results reported in US20260014146A1, “CDK2 INHIBITORS AND METHODS OF USING THE SAME” (Cedilla Therapeutics, Inc., priority 2022, published 2026).
Values belong to the compound of their own block, whether it stands above or below them.

Key:
[1] = system: Kuramochi cells labeled with mApple-H2B; assay: IncuCyte cell proliferation assay; assay type: cell-based; details: Kuramochi RB-WT, cell count 0 to 72 hours; method calls it GI50
Procedure, shortened: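 mApple-H2B-labelled Kuramochi cells were treated with compound (10-point, half-log dilutions, 20 μM top) and fluorescent nuclei counted by imaging at 0 and 72 h. Fold change in count was normalized to DMSO wells and fitted to dose-response curves to give GI50.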

[2] = molecular target: CDK2/Cyclin E1 (Homo sapiens (Human), UniProt P24941); assay: ADP-Glo Luminescent Kinase Assay, ADPGLO (CDK2/E1-37C); assay type: biochemical; details: 0.18 nM CDK2/Cyclin E1, 100 μM ATP, 1.5 μM Histone H1, 37° C.; read-out: Pharmaron ADPGLO (CDK2/E1-37C): IC50
Description: Inhibition of CDK2/Cyclin E1 activity by the presence of small molecules was evaluated using ADP-Glo Luminescent Kinase Assay (Promega). Activated CDK2/Cyclin E1 was incubated with its substrate Histone H1 (SignalChem H10-54N) in the kinase reaction buffer (100 μM ATP, 50 mM HEPES pH 7.5, 10 mM MgCl2, 1 mM EDTA, 2 mM DTT, 0.01% Brij35, 0.5 mg/mL BSA). Luminescence was recorded with an Envision plate reader (PerkinElmer).
Dose titrations of inhibitors in 100% DMSO were combined with 0.36 nM CDK2/Cyclin E1 in reaction buffer. The mixtures were incubated for 60 minutes at 37° C. before the addition of ATP and Histone H1 substrate to initiate the kinase reaction. The final conditions were 0.18 nM CDK2/Cyclin E1, 100 μM ATP, and 1.5 μM Histone H1. The reactions were incubated at 37° C. for 90 minutes before being stopped with the addition of ADP-Glo reagent. This mixture was incubated at room temperature for 60 minutes before Kinase Detection Solution is added to generate luminescence. The stopped reactions were analyzed on an Envision plate reader. The conversion ratios were normalized to yield % activity, plotted against compound concentration, and fit to a four-parameter equation to determine the IC50 for each compound.

Compound: C[C@@H](OCC12CCC(CC1)OC2)[C@@H](COc1ccccc1C(=O)O)NC(=O)[C@@H]1CN(c2cc(F)cc3ncsc23)CC12CN(C(=O)C1(C(F)(F)F)CC1)C2 [Compound I-49, 2-((2R,3R)-3-((2-oxabicyclo[2.2.2]octan-4-yl)methoxy)-2-((S)-6-(5-fluorobenzo[d]thiazol-7-yl)-2-(1-(trifluoromethyl)cyclopropane-1-carbonyl)-2,6-diazaspiro[3.4]octane-8-carboxamido)butoxy)benzoic acid]
IC50 [1]: > 20 µM
IC50 [2]: > 10 µM

Compound: C[C@@H](OCC12CCC(CC1)OC2)[C@H](NC(=O)[C@@H]1CN(c2cc(F)cc3ncsc23)CC12CN(C(=O)C1(C(F)(F)F)CC1)C2)C(=O)NS(=O)(=O)c1ccc(F)cc1F [Compound I-51, (S)-N-((2S,3R)-3-(2-oxabicyclo[2.2.2]octan-4-ylmethoxy)-1-(2,4-difluorophenylsulfonamido)-1-oxobutan-2-yl)-6-(5-fluorobenzo[d]thiazol-7-yl)-2-(1-(trifluoromethyl)cyclopropanecarbonyl)-2,6-diazaspiro[3.4]octane-8-carboxamide]
IC50 [1]: > 20 µM
IC50 [2]: 5 to 10 µM

Compound: C[C@@H](OCC12CCC(CC1)OC2)[C@@H](COC1CCC(c2ccccc2C(=O)O)CC1)NC(=O)[C@@H]1CN(c2cc(F)cc3ncsc23)CC12CN(C(=O)C1(C(F)(F)F)CC1)C2 (stereo partly drawn) [Compound I-53, 2-(4-((2R,3R)-3-(2-oxabicyclo[2.2.2]octan-4-ylmethoxy)-2-((S)-6-(5-fluorobenzo[d]thiazol-7-yl)-2-(1-(trifluoromethyl)cyclopropanecarbonyl)-2,6-diazaspiro[3.4]octane-8-carboxamido)butoxy)cyclohexyl)benzoic acid]
IC50 [1]: > 20 µM
IC50 [2]: > 10 µM

Second part, led by results:

IC50 [2]: 0.5 to 5 µM
Compound: C[C@@H](OCC12CCC(CC1)OC2)[C@H](NC(=O)[C@@H]1CN(c2cc(F)cc3ncsc23)CC12CN(C(=O)C1(C(F)(F)F)CC1)C2)C(=O)N1CCC(c2nccs2)CC1 [Compound I-48, (S)-N-((2S,3R)-3-((2-oxabicyclo[2.2.2]octan-4-yl)methoxy)-1-oxo-1-(4-(thiazol-2-yl)piperidin-1-yl)butan-2-yl)-6-(5-fluorobenzo[d]thiazol-7-yl)-2-(1-(trifluoromethyl)cyclopropane-1-carbonyl)-2,6-diazaspiro[3.4]octane-8-carboxamide]
IC50 [1]: 0.5 to 5 µM

IC50 [2]: 5 to 10 µM
Compound: COc1ccc(S(=O)(=O)NC(=O)[C@@H](NC(=O)[C@@H]2CN(c3cc(F)cc4ncsc34)CC23CN(C(=O)C2(C(F)(F)F)CC2)C3)[C@@H](C)OCC23CCC(CC2)OC3)cc1 [Compound I-50, (S)-N-((2S,3R)-3-((2-oxabicyclo[2.2.2]octan-4-yl)methoxy)-1-((4-methoxyphenyl)sulfonamido)-1-oxobutan-2-yl)-6-(5-fluorobenzo[d]thiazol-7-yl)-2-(1-(trifluoromethyl)cyclopropane-1-carbonyl)-2,6-diazaspiro[3.4]octane-8-carboxamide]
IC50 [1]: > 20 µM

IC50 [2]: 5 to 10 µM
Compound: C[C@@H](OCC12CCC(CC1)OC2)[C@H](NC(=O)[C@@H]1CN(c2cc(F)cc3ncoc23)CC12CN(C(=O)C1(C(F)(F)F)CC1)C2)C(=O)N1CCC(c2nccs2)CC1 [Compound I-52, (S)-N-((2S,3R)-3-((2-oxabicyclo[2.2.2]octan-4-yl)methoxy)-1-oxo-1-(4-(thiazol-2-yl)piperidin-1-yl)butan-2-yl)-6-(5-fluorobenzo[d]oxazol-7-yl)-2-(1-(trifluoromethyl)cyclopropane-1-carbonyl)-2,6-diazaspiro[3.4]octane-8-carboxamide]
IC50 [1]: 5 to 20 µM
